Our source for the GI50 and TGI values is PubChem BioAssay (NCI).

Assay in all cases: NCI-60 cell line screen, 384-well format
The test system of assay [1] is A549 NSCLC.
Assay [2] concerns COLO 205 colon.
Assay [3] deals with EKVX NSCLC.
The subject of assay [4] is IGROV1 ovarian.
Assay [5] relates to K-562 leukemia.
Assay [6] has as its system MDA-MB-231 breast.
Assay [7] deals with MDA-MB-435 melanoma.
In assay [8] the test system is NCI-H460 NSCLC.
Assay [9] has as its system SK-OV-3 ovarian.
Assay [10] deals with SNB-19 CNS.
The test system of assay [11] is SW-620 colon.
Assay [12] concerns TK-10 renal.

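At the GI50, growth is halved. Definition used: TGI = concentration required for complete inhibition of growth.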

Take `CC#CC(=O)N1CC[C@@H](n2c(=O)n(-c3ccc(Oc4ccccc4)cc3)c3c(N)ncnc32)C1`: the GI50 is 34.8 µM in assay [1]; 37.1 µM in assay [2]; 20.7 µM in assay [3]; 16.8 µM in [4]; 12.5 µM in [5]; 22 µM in assay [6]. Moreover, the GI50 in assay [7] was 30 µM; in assay [8] it was 17.1 µM; in assay [9] it was 33.5 µM; in assay [10] it was 23.3 µM; in assay [11], 25.6 µM; in [12] it was 36.5 µM. Further, the TGI in assay [1] was above 100 µM; in assay [2] it was above 100 µM; in assay [3], above 77.2 µM; in [4], 37.4 µM; in assay [5], 38.4 µM; in assay [6], above 67.8 µM. The TGI in assay [7] is above 80.4 µM; in assay [8], 33.4 µM; in [9], above 87.1 µM; in assay [10], above 64.3 µM; in assay [11] it was 55.9 µM; in [12], above 100 µM.
